Assay results reported in patent US7662814B2, “4-aminothieno[2,3-d]pyrimidine-6-carbonitrile derivatives as PDE7 inhibitors” (Laboratorios Almirall, S.A., priority 2003, dated 2010).

| Structure (SMILES) | melting point [°C] |
| --- | --- |
| CCN(CC)c1nc(-c2ccc3c(c2)OCO3)nc2sc(C#N)c(C)c12 [Example 36, 2-(1,3-Benzodioxol-5-yl)-4-(diethylamino)-5-methylthieno[2,3-d]pyrimidine-6-carbonitrile] | 199 to 201 |
| CCNc1nc(Cc2ccc(OC)c(OC)c2)nc2sc(C#N)c(C)c12 [Example 95, 2-(3,4-Dimethoxybenzyl)-4-(ethylamino)-5-methylthieno[2,3-d]pyrimidine-6-carbonitrile] | 125 to 126 |
| COc1ccc(-c2nc(N3CCCCC3)c3c(C)c(C#N)sc3n2)cc1 [Example 6, 2-(4-Methoxyphenyl)-5-methyl-4-piperidin-1-ylthieno[2,3-d]pyrimidine-6-carbonitrile] | 202 to 204 |
| Cc1c(C#N)sc2nc(-c3ccc([N+](=O)[O-])cc3)nc(N3CCNCC3)c12 [Example 13, 5-Methyl-2-(4-nitrophenyl)-4-piperazin-1-ylthieno[2,3-d]pyrimidine-6-carbonitrile] | 250 |
| COc1ccc(-c2nc(N(C)C)c3c(C)c(C#N)sc3n2)cc1OC [Example 46, 2-(3,4-Dimethoxyphenyl)-4-(dimethylamino)-5-methylthieno[2,3-d]pyrimidine-6-carbonitrile] | 198 to 200 |
| CCN1CCN(c2nc(-c3ccc(OC)cc3)nc3sc(C#N)c(C)c23)CC1 [Example 2, 4-(4-Ethylpiperazin-1-yl)-2-(4-methoxyphenyl)-5-methylthieno[2,3-d]pyrimidine-6-carbonitrile] | 173 to 175 |
| Cc1ccc(-c2nc(N3CCN(C)CC3)c3c(C)c(C#N)sc3n2)cc1 [Example 27, 5-Methyl-2-(4-methylphenyl)-4-(4-methylpiperazin-1-yl)thieno[2,3-d]pyrimidine-6-carbonitrile] | 207 to 209 |
| Cc1c(C#N)sc2nc(-c3ccc4c(c3)OCO4)nc(N3CCN(C)CC3)c12 [Example 34] | 196 to 197 |
| Cc1c(C#N)sc2nc(CCCc3ccccc3)nc(N3CCN(C)CC3)c12 [Example 130, 5-Methyl-4-(4-methylpiperazin-1-yl)-2-(3-phenylpropyl)thieno[2,3-d]pyrimidine-6-carbonitrile] | 101 to 103 |
| COc1cc(Cc2nc(NC(C)(C)C)c3c(C)c(C#N)sc3n2)cc(OC)c1OC [Example 116, 4-(tert-Butylamino)-5-methyl-2-(3,4,5-trimethoxybenzyl)thieno[2,3-d]pyrimidine-6-carbonitrile] | 146 to 148 |
| Cc1c(C#N)sc2nc(-c3ccncc3)nc(N(C)CCO)c12 [Example 42, 4-[(2-Hydroxyethyl)(methyl)amino]-5-methyl-2-pyridin-4-ylthieno[2,3-d]pyrimidine-6-carbonitrile] | 194 to 195 |
| Cc1c(C#N)sc2nc(Cc3ccccc3)nc(N3CCOCC3)c12 [Example 58, 2-Benzyl-5-methyl-4-morpholin-4-yl-thieno[2,3-d]pyrimidine-6-carbonitrile] | 88 to 90 |
| C#CCN(C)c1nc(-c2ccc(OC)cc2)nc2sc(C#N)c(C)c12 [Example 24, 2-(4-Methoxyphenyl)-5-methyl-4-[methyl(prop-2-ynyl)amino]thieno[2,3-d]pyrimidine-6-carbonitrile] | 160 to 171 |
| CCNc1nc(-c2cc(OC)cc(OC)c2)nc2sc(C#N)c(C)c12 [Example 134] | 207 to 208 |
| COCCNc1nc(Cc2ccc(OC)c(OC)c2)nc2sc(C#N)c(C)c12 [Example 106, 2-(3,4-Dimethoxybenzyl)-4-[(2-methoxyethyl)amino]-5-methylthieno[2,3-d]pyrimidine-6-carbonitrile] | 94 to 97 |
| CCN(CC)c1nc(Cc2ccc(OC)c(OC)c2)nc2sc(C#N)c(C)c12 [Example 101, 4-(Diethylamino)-2-(3,4-dimethoxybenzyl)-5-methylthieno[2,3-d]pyrimidine-6-carbonitrile] | 107 to 109 |
| COc1cc(-c2nc(N3CCOCC3)c3c(C)c(C#N)sc3n2)cc(OC)c1OC [Example 51, 5-Methyl-4-morpholin-4-yl-2-(3,4,5-trimethoxy-phenyl)-thieno[2,3-d]pyrimidine-6-carbonitrile] | > 250 |
| Cc1c(C#N)sc2nc(-c3ccc(Cl)cc3)nc(N3CCOCC3)c12 [Example 23, 2-(4-Chlorophenyl)-5-methyl-4-morpholin-4-ylthieno[2,3-d]pyrimidine-6-carbonitrile] | 205 to 207 |
| Cc1c(C#N)sc2nc(-c3ccc4c(c3)OCO4)nc(N3CCOCC3)c12 [Example 37, 2-(1,3-Benzodioxol-5-yl)-5-methyl-4-morpholin-4-ylthieno[2,3-d]pyrimidine-6-carbonitrile] | 197 to 198 |
| CCN(CC)c1nc(-c2ccc(OC)c(OC)c2)nc2sc(C#N)c(C)c12 [Example 20, 4-(Diethylamino)-2-(3,4-dimethoxyphenyl)-5-methylthieno[2,3-d]pyrimidine-6-carbonitrile] | 159 to 161 |
| Cc1ccc(-c2nc(N3CCOCC3)c3c(C)c(C#N)sc3n2)cc1 [Example 32, 5-Methyl-2-(4-methylphenyl)-4-morpholin-4-ylthieno[2,3-d]pyrimidine-6-carbonitrile] | 206 to 207 |
| CCN(C)c1nc(-c2ccc(C(=O)OC)cc2)nc2sc(C#N)c(C)c12 [Example 57] | 125 to 128 |
| COc1ccc(-c2nc(N3CCOCC3)c3c(C)c(C#N)sc3n2)cc1 [Example 22, 2-(4-Methoxyphenyl)-5-methyl-4-morpholin-4-ylthieno[2,3-d]pyrimidine-6-carbonitrile] | 204 to 206 |
| CCN(C)c1nc(-c2ccc(OC)c(OC)c2)nc2sc(C#N)c(C)c12 [Example 26, 2-(3,4-Dimethoxyphenyl)-4-[ethyl(methyl)amino]-5-methylthieno[2,3-d]pyrimidine-6-carbonitrile] | 133 to 135 |
| COc1ccc(-c2nc(N3CCCC3)c3c(C)c(C#N)sc3n2)cc1 [Example 11, 2-(4-Methoxyphenyl)-5-methyl-4-pyrrolidin-1-ylthieno[2,3-d]pyrimidine-6-carbonitrile] | 176 to 178 |
| COc1ccc(Cc2nc(NCCO)c3c(C)c(C#N)sc3n2)cc1OC [Example 104, 2-(3,4-Dimethoxybenzyl)-4-[(2-hydroxyethyl)amino]-5-methylthieno[2,3-d]pyrimidine-6-carbonitrile] | 149 to 151 |

More lines, now with the values ahead:

| melting point [°C] | Structure (SMILES) |
| --- | --- |
| 238 to 240 | COc1cc(-c2nc(-n3ccnc3)c3c(C)c(C#N)sc3n2)cc(OC)c1OC [Example 89, 4-(1H-Imidazol-1-yl)-5-methyl-2-(3,4,5-trimethoxyphenyl)thieno[2,3-d]pyrimidine-6-carbonitrile] |
| 222 to 225 | COc1cc(-c2nc(NCCC(=O)O)c3c(C)c(C#N)sc3n2)cc(OC)c1OC [Example 87, N-[6-Cyano-5-methyl-2-(3,4,5-trimethoxyphenyl)thieno[2,3-d]pyrimidin-4-yl]-beta-alanine] |
| 195 to 197 | COc1cc(-c2nc(NC(C)(C)C)c3c(C)c(C#N)sc3n2)cc(OC)c1OC [Example 74, 4-(tert-Butylamino)-5-methyl-2-(3,4,5-trimethoxyphenyl)thieno[2,3-d]pyrimidine-6-carbonitrile] |
| 194 to 195 | CNc1nc(Cc2cc(OC)c(OC)c(OC)c2)nc2sc(C#N)c(C)c12 [Example 110, 5-Methyl-4-(methylamino)-2-(3,4,5-trimethoxybenzyl)thieno[2,3-d]pyrimidine-6-carbonitrile] |
| 218 to 220 | COc1cc(-c2nc(NC3CCCC3)c3c(C)c(C#N)sc3n2)cc(OC)c1OC [Example 77, 4-(Cyclopentylamino)-5-methyl-2-(3,4,5-trimethoxyphenyl)thieno[2,3-d]pyrimidine-6-carbonitrile] |
| 164 to 165 | CCNc1nc(Cc2cc(OC)c(OC)c(OC)c2)nc2sc(C#N)c(C)c12 [Example 111, 4-(Ethylamino)-5-methyl-2-(3,4,5-trimethoxybenzyl)thieno[2,3-d]pyrimidine-6-carbonitrile] |
| 226 to 228 | CCC(CC)Nc1nc(-c2cc(OC)c(OC)c(OC)c2)nc2sc(C#N)c(C)c12 [Example 73, 4-[(1-Ethylpropyl)amino]-5-methyl-2-(3,4,5-trimethoxyphenyl)thieno[2,3-d]pyrimidine-6-carbonitrile] |
| 162 to 164 | C=CCN(C)c1nc(-c2cc(OC)c(OC)c(OC)c2)nc2sc(C#N)c(C)c12 [Example 78, 4-[Allyl(methyl)amino]-5-methyl-2-(3,4,5-trimethoxyphenyl)thieno[2,3-d]pyrimidine-6-carbonitrile] |
| 213 to 215 | COc1cc(-c2nc(N3CCNC(C)C3)c3c(C)c(C#N)sc3n2)cc(OC)c1OC (stereo not shown) [Example 83, 5-Methyl-4-(3-methylpiperazin-1-yl)-2-(3,4,5-trimethoxyphenyl)thieno[2,3-d]pyrimidine-6-carbonitrile] |
| 209 to 214 | COc1cc(-c2nc(-n3cccn3)c3c(C)c(C#N)sc3n2)cc(OC)c1OC [Example 88, 5-Methyl-4-(1H-pyrazol-1-yl)-2-(3,4,5-trimethoxyphenyl)thieno[2,3-d]pyrimidine-6-carbonitrile] |
| 91 to 93 | CCC(C)Nc1nc(-c2cc(OC)c(OC)c(OC)c2)nc2sc(C#N)c(C)c12 (stereo not shown) [Example 71, 4-(sec-Butylamino)-5-methyl-2-(3,4,5-trimethoxyphenyl)thieno[2,3-d]pyrimidine-6-carbonitrile] |
| 208 to 210 | COc1cc(-c2nc(-n3nccn3)c3c(C)c(C#N)sc3n2)cc(OC)c1OC [Example 90, 5-Methyl-4-(2H-1,2,3-triazol-2-yl)-2-(3,4,5-trimethoxyphenyl)thieno[2,3-d]pyrimidine-6-carbonitrile] |
| 182 to 184 | COc1cc(-c2nc(NCC(C)C)c3c(C)c(C#N)sc3n2)cc(OC)c1OC [Example 72, 4-(Isobutylamino)-5-methyl-2-(3,4,5-trimethoxyphenyl)thieno[2,3-d]pyrimidine-6-carbonitrile] |
| 129 to 131 | COc1cc(Cc2nc(NCC(C)C)c3c(C)c(C#N)sc3n2)cc(OC)c1OC [Example 135, 4-(Isobutylamino)-5-methyl-2-(3,4,5-trimethoxybenzyl)thieno[2,3-d]pyrimidine-6-carbonitrile] |
